From patent publication US20240415791A1, “Therapeutic methods and compositions for treating cancer using devimistat and a fatty acid oxidation inhibitor, a tyrosine kinase inhibitor, a glutaminase inhibitor, and/or a glycolysis inhibitor” (Cornerstone Pharmaceuticals, Inc., priority 2021, published 2024)

Columns and labels:
[1] = cited from earlier work
[2] = tested on: BxPC3, PANC1, AsPC1 and H460 cells; assay: 3H-2-deoxyglucose uptake by tumor cell lines; type: cell-based, human; settings: 240 μM devimistat, complete RPMI, two hours
Protocol: Cells were treated in complete RPMI with devimistat (240 μM) for a total of 2 hours, with a pulse of 1,2-^3H 2-deoxyglucose at the end of this treatment for the times indicated in Example 1D and FIG. 1D. Cells were harvested, washed, and counted to asses uptake. More particularly, seeding, drug treatment, and 2DG uptake were all performed in RPMI medium supplemented with 10% FBS for BXPC3, H460 and PANC1 cells and DMEM+10% FBS for AsPC1. All treatments were done in triplicate. BxPC3 cells were seeded at 500,000 cells per 35-mm dish; H460, PANC1, and AsPC1 cells were plated in 6 well plates at 300,000 cells per well for PANC1 and at 500,000 cells per well for AsPC1 and H460. […]
At the end of the 2 hour drug treatment, plates were placed on ice, medium removed and plates were washed three times with ice cold medium without FBS. […] Lysates were transferred into scintillation vials containing 3 mL of scintillation cocktail and counted.
D. Pulse analysis of ^3H-2-deoxyglucose (2DG) uptake by tumor cell lines. ˜8×10^5 cells were treated with 240 μM devimistat or solvent control in complete RPMI for two hours and pulse labeled by addition of 0.5 μCi of ^3H-2DG for the final 0.25 or 1 hour of treatment as indicated in FIG. 1D. Cells were washed in ice-cold RPMI without serum, lysed, and counted (see Methods, above).

PANC1 cells = assay: Devimistat-induced cell death (ATP after recovery) in PANC1 cells; type: cell-based, human; settings: exogenous nutrient-free conditions
Protocol: Cells were plated at 80% confluency in complete RPMI in black, clear bottom 96-well plates or 35-mm dishes for ATP, protein and glycogen analysis, or glass coverslips for fluorescence visualization. To create low nutritional conditions, cells were seeded in complete media, after 24 hours cells were transferred to serum free RPMI for 18-24 hours. Prior to drug treatment, cells were incubated in a nutrient-free carbonate buffered salt solution (CBS2) for 3 hours. Drug treatments were then carried out in CBS2 with addition of nutrient sources and/or chemical agents as described in the Examples and Figures.
LOGIC: High throughput, plate reader assays for cell death essentially always ultimately depend on metabolic activity of cells to identify viability, directly or indirectly. Thus, strong inhibition of metabolic activity by anti-metabolism agents like those described herein can confound cell death analysis by such assays. […] The inventors thus used a recovery-based assay wherein cells are treated with anti-metabolic agents under conditions where mitochondrial metabolism is (or becomes) limiting on viability. After experimental treatment, drug and media are removed and cells are allowed to recover in serum-free RPMI. RPMI provides high levels of glucose in support of glycolytic ATP generation (independently of mitochondrial function), allowing viable cells to recover ATP levels that are ultimately measured in the plate assay to score cell viability. Under these conditions, cells that are committed to execution of cell death by the experimental treatment score as dead and cells that have not committed to cell death recover ATP levels and score as viable.
Specifically, after exposure to the treatments indicated, cells are allowed to recover ([…]) in RPMI without serum. Survival is assessed by conventional luminescence measurement of ATP levels after this recovery.
TECHNICAL DETAILS: Immediately after drug treatments, acute ATP levels of cells in black, clear bottom 96-well plates were measured using the CellTiter-Glo® Luminescent Cell Viability Assay (catalog #G775B) following Promega (Madison, WI) protocols. To assess cell viability, after drug treatments, drug/agent-containing medium was replaced with serum-free RPMI and cells were incubated for an additional 17-24 hours to allow recovery of viable cells, without additional cell division. After this recovery period ATP levels were measured using the CellTiter-Glo® Luminescent Cell Viability Assay as described above.
A. Exogenous glucose protects from devimistat-induced cell death. Four different cell lines were exposed for 15 hours (PANC1, AsPC1, H460) or 8 hours (PC3) to the indicated range of devimistat doses in the absence of exogenous nutrients (in carbonate buffered balanced salts solution, CBS2) after 3 hours of preincubation in CBS2 (for cell adaptation and to equilibrate soluble nutrient pools). Cells were exposed to the treatments indicated, followed by recovery (24 hours) in RPMI without serum (providing nutrient support for viable cell recovery, without serum factors for cell division). Survival is assessed by conventional luminescence measurement of ATP levels after this recovery. […] The relatively large quantitative differences in devimistat sensitivity between cell lines under exogenous nutrient deprivation are characteristic of each line (see examples below), with small experiment-to-experiment variation. […]

For O=C(O)CCCCC(CCSCc1ccccc1)SCc1ccccc1 (stereo not shown) [devimistat, 6,8-bis(benzylsulfanyl)octanoic acid], the “half-life after IV dosing” value ([1]; IV dosing) is given as 1 to 2 h, the “peak serum concentration after clinical infusion” value ([1]; clinical IV infusion) is given as roughly 100 µM and the “3H-2-deoxyglucose (glucose) uptake” value [2] is given as “accelerated glucose uptake”. For the same compound, the “sensitivity of PANC1 line to devimistat monotherapy” value (PANC1 cells) was “sensitive to devimistat monotherapy”.
